According to US10800815B2, “Kv1.3 potassium channel antagonists” (cgtx-Peptide Development GmbH, priority 2014, dated 2020):

What was measured:
[1] = system: white blood cells in peripheral blood; experiment: Haematology (WBC, neutrophil granulocytes, lymphocytes) in AIA rats; format: in vivo, rat
Procedure: For the blood withdrawal the animals were narcotized briefly, the tail was disinfected and the tail vein was punctured with a cannula, 50 μl of blood were withdrawn with a heparin coated pipette and mixed with 5 μl of a stabilising agent (CPD) and 1 μl heparin (1.5 U/μl diluted 1:4 in 0.9% NaCl).
White Blood Cells (WBC) were counted with a Coulter Counter in the automatic mode.
Blood samples were taken regularly for monitoring of hematological parameters. Haematological parameters were assessed in all animals weekly before induction, at day of induction and 10 days after induction (days −21, −14, −7, 0 and 10). […] Absolute counts of white blood cells (WBC), neutrophil granulocytes and lymphocytes were analyzed among others, the last two also stated in percentage of total WBC. EDTA whole blood of seven individuals from both vehicle and cgtx-544 peptide therapy group was measured with Sysmex XT-2000i.
For screening the state of health of all individuals, complete haemograms were used again. EDTA whole blood of seven individuals from both MTX high-dose and low-dose therapy groups were measured with Sysmex XT-2000i.V weekly before induction, at day of induction and 4 and 7 days after induction (day −21, −14, −7, 0, 4 and 7; MTX low-dose therapy group additionally on day −3, when i.v. application started).

Kv1.3 = Kv1.3 (Homo sapiens, UniProt P22001); experiment: Kv1.3 block with prolonged incubation times; format: cell-based
Kv1.3, sequence (P22001 whole entry): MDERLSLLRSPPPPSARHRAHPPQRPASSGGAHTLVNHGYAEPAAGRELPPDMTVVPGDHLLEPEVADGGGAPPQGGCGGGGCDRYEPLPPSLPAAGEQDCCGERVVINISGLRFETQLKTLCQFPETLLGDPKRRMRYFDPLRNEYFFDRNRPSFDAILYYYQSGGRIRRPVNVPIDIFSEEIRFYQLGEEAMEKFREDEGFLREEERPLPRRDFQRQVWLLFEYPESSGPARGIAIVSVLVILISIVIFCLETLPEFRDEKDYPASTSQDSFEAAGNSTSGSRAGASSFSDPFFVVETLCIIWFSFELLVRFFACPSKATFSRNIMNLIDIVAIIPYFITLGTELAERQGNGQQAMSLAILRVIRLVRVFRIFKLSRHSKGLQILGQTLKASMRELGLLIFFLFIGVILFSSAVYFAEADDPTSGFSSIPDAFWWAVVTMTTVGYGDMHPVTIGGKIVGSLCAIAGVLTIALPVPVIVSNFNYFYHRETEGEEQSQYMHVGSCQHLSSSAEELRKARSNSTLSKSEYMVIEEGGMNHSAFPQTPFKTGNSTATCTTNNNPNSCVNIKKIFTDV

SMILES: CC[C@H](C)[C@H](NC(=O)[C@@H](N)[C@@H](C)O)C(=O)N[C@H](C(=O)N[C@@H](CC(N)=O)C(=O)N[C@H](C(=O)N[C@@H](CCCCN)C(=O)N[C@H]1CSSC[C@@H]2NC(=O)[C@H](CCCCN)NC(=O)CNC(=O)[C@H](Cc3ccc(O)cc3)NC(=O)[C@@H]3CCCN3C(=O)[C@@H]3CSSC[C@@H](C(=O)O)NC(=O)[C@H](CCCNC(=N)N)NC(=O)[C@H](CC(N)=O)NC(=O)[C@@H]4CSSC[C@H](NC(=O)[C@@H]5CCCN5C(=O)[C@@H]5CCCN5C(=O)[C@H](CC(C)C)NC(=O)[C@H](CSSC[C@H](NC(=O)[C@H](CCCCN)NC(=O)[C@H](CCCNC(=N)N)NC(=O)[C@H](CC(N)=O)NC(=O)[C@H](CCSC)NC2=O)C(=O)N[C@@H](CCCCN)C(=O)N4)NC(=O)[C@H](CCC(N)=O)NC(=O)[C@H](CCCCN)NC(=O)[C@@H]2CCCN2C(=O)[C@H](CO)NC(=O)[C@H]([C@@H](C)O)NC1=O)C(=O)N[C@@H](CCCCN)C(=O)N[C@@H](C)C(=O)N[C@@H](CCC(N)=O)C(=O)N[C@@H]([C@@H](C)O)C(=O)NCC(=O)N3)C(C)C)[C@@H](C)CC [Compound 7]
- generalized immunosuppression ([1]; 1 mg/kg 1× daily i.v.): did not show a generalized immunosuppression
- WBC, neutrophil granulocytes and lymphocytes, absolute and relative cell counts ([1]; curative treatment, 1 mg/kg daily i.v.): comparable to vehicle treated individuals
- WBC, neutrophil granulocytes and lymphocytes, absolute and relative cell counts ([1]; preventive treatment, daily i.v. from day −3): comparable to vehicle treated individuals
- block of Kv1.3 currents (Kv1.3; long incubation times, i.e. 15 min): 60%
- block of Kv1.3 currents (Kv1.3; short incubation times): 20%
